Assay results reported in article PMC6120924, “YesU from Bacillus subtilis preferentially binds fucosylated glycans” (Scientific Reports, 2018).

Each molecule was assayed against T1, YesU (Bacillus subtilis, UniProt O31524) (assay: SPR, steady state, single cycle, Biacore T100). Conditions: His-YesU on Ni-NTA chip; PBS-MgCl2 pH 7.4; 25 °C.
T1 construct: captured by His tag on NTA chip
T1 sequence (O31524 1-220): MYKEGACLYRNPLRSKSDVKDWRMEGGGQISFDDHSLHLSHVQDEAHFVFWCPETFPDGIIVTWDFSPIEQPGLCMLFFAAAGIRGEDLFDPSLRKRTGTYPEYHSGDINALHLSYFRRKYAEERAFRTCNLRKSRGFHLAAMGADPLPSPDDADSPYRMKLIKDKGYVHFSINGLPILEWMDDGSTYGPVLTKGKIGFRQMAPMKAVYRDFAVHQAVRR
Format: binding
Excerpt: SPR, steady state, single cycle, Biacore T100 on YesU

SMILES	Kd [nM]
CC(=O)N[C@H]1[C@H](O[C@H]2[C@@H](O)[C@@H](CO)O[C@@H](O[C@H]3[C@H](O)[C@@H](O)C(O)O[C@@H]3CO)[C@@H]2O)O[C@H](CO)[C@@H](O[C@@H]2O[C@H](CO)[C@H](O)[C@H](O)[C@H]2O)[C@@H]1O (stereo partly drawn) [1H, Galβ1-4GlcNAcβ1-3Galβ1-4Glc]	440 ± 20
CC(=O)N[C@H]1[C@H](O[C@H]2[C@H](O)[C@@H](NC(C)=O)[C@H](O[C@H]3[C@H](O)[C@@H](NC(C)=O)C(O)O[C@@H]3CO)O[C@@H]2CO)O[C@H](CO)[C@@H](O[C@@H]2O[C@H](CO)[C@@H](O[C@@H]3O[C@H](CO)[C@@H](O[C@@H]4O[C@H](CO)[C@@H](O)[C@H](O)[C@H]4NC(C)=O)[C@H](O)[C@H]3NC(C)=O)[C@H](O)[C@H]2NC(C)=O)[C@@H]1O (stereo partly drawn) [4D, GlcNAcβ1-4GlcNAcβ1-4GlcNAcβ1-4GlcNAcβ1-4GlcNAcβ 1-4GlcNAc]	1130 ± 20
CC(=O)N[C@H]1[C@H](O[C@H]2[C@@H](O)[C@@H](CO)O[C@@H](O[C@H]3[C@H](O)[C@@H](O)C(O)O[C@@H]3CO)[C@@H]2O)O[C@H](CO)[C@@H](O)[C@@H]1O[C@@H]1O[C@H](CO)[C@H](O)[C@H](O)[C@H]1O[C@@H]1O[C@@H](C)[C@@H](O)[C@@H](O)[C@@H]1O (stereo partly drawn) [7A, Fucα1-2Galβ1-3GlcNAcβ1-3Galβ1-4Glc]	1230 ± 20
CC(=O)N[C@H]1[C@H](O[C@H]2[C@@H](O)[C@@H](CO)O[C@@H](O[C@H]3[C@H](O)[C@@H](O)C(O)O[C@@H]3CO)[C@@H]2O)O[C@H](CO)[C@@H](O[C@@H]2O[C@H](CO)[C@H](O)[C@H](O)[C@H]2O)[C@@H]1O[C@@H]1O[C@@H](C)[C@@H](O)[C@@H](O)[C@@H]1O (stereo partly drawn) [7C, Galβ1-4(Fucα1-3)GlcNAcβ1-3Galβ1-4Glc]	140 ± 1
CC(=O)N[C@H]1[C@H](O[C@H]2[C@@H](O)[C@@H](CO)O[C@@H](O[C@H]3[C@H](O[C@@H]4O[C@@H](C)[C@@H](O)[C@@H](O)[C@@H]4O)[C@@H](O)C(O)O[C@@H]3CO)[C@@H]2O)O[C@H](CO)[C@@H](O[C@@H]2O[C@@H](C)[C@@H](O)[C@@H](O)[C@@H]2O)[C@@H]1O[C@@H]1O[C@H](CO)[C@H](O)[C@H](O)[C@H]1O (stereo partly drawn) [7E, Galβ1-3(Fucα1-4)GlcNAcβ1-3Galβ1-4(Fucα1-3)Glc]	340 ± 10
C[C@@H]1O[C@@H](O[C@H]2C(O)O[C@H](CO)[C@H](O)[C@@H]2O)[C@@H](O)[C@H](O)[C@@H]1O (stereo partly drawn) [7F, Fucα1-2Gal]	360 ± 10
CC(=O)N[C@H]1C(O)O[C@H](CO)[C@@H](O[C@@H]2O[C@H](CO)[C@H](O)[C@H](O)[C@H]2O)[C@@H]1O[C@@H]1O[C@@H](C)[C@@H](O)[C@@H](O)[C@@H]1O (stereo partly drawn) [7I, Galβ1-4(Fucα1-3)GlcNAc]	150 ± 6
CC(=O)N[C@H]1C(O)O[C@H](CO)[C@@H](O[C@@H]2O[C@@H](C)[C@@H](O)[C@@H](O)[C@@H]2O)[C@@H]1O[C@@H]1O[C@H](CO)[C@H](O)[C@H](O)[C@H]1O (stereo partly drawn) [7J, Galβ1-3(Fucα1-4)GlcNAc]	420 ± 4
CC(=O)N[C@H]1[C@@H](O[C@H]2[C@@H](O)[C@@H](CO)OC(O)[C@@H]2O[C@@H]2O[C@@H](C)[C@@H](O)[C@@H](O)[C@@H]2O)O[C@H](CO)[C@H](O)[C@@H]1O (stereo partly drawn) [7K, GalNAcα1-3(Fucα1-2)Gal]	7630 ± 300
C[C@@H]1O[C@@H](O[C@H]2C(O)O[C@H](CO)[C@H](O)[C@@H]2O[C@H]2O[C@H](CO)[C@H](O)[C@H](O)[C@H]2O)[C@@H](O)[C@H](O)[C@@H]1O (stereo partly drawn) [7M, Galα1-3(Fucα1-2)Gal]	190 ± 3
CC(=O)N[C@H]1C(O)O[C@H](CO)[C@@H](O[C@@H]2O[C@H](CO)[C@H](O)[C@H](O)[C@H]2O[C@@H]2O[C@@H](C)[C@@H](O)[C@@H](O)[C@@H]2O)[C@@H]1O[C@@H]1O[C@@H](C)[C@@H](O)[C@@H](O)[C@@H]1O (stereo partly drawn) [7N, Fucα1-2Galβ1-4(Fucα1-3)GlcNAc]	340 ± 2
CC(=O)N[C@H]1C(O)O[C@H](CO)[C@@H](O[C@@H]2O[C@H](CO)[C@H](O)[C@H](O)[C@H]2O[C@@H]2O[C@@H](C)[C@@H](O)[C@@H](O)[C@@H]2O)[C@@H]1O (stereo partly drawn) [7O, Fucα1-2Galβ1-4GlcNAc]	340 ± 4
CC(=O)N[C@H]1C(O)O[C@H](CO)[C@@H](O[C@@H]2O[C@@H](C)[C@@H](O)[C@@H](O)[C@@H]2O)[C@@H]1O[C@@H]1O[C@H](CO)[C@H](O)[C@H](OS(=O)(=O)O)[C@H]1O (stereo partly drawn) [8A, SO3-3Galβ1-3(Fucα1-4)GlcNAc]	2070 ± 20
CC(=O)N[C@H]1[C@H](O[C@H]2[C@@H](O)[C@@H](CO)O[C@@H](O[C@H]3[C@H](O)[C@@H](O)C(O)O[C@@H]3CO)[C@@H]2O)O[C@H](CO)[C@@H](O[C@@H]2O[C@H](CO)[C@H](O)[C@H](O)[C@H]2O[C@@H]2O[C@@H](C)[C@@H](O)[C@@H](O)[C@@H]2O)[C@@H]1O[C@@H]1O[C@@H](C)[C@@H](O)[C@@H](O)[C@@H]1O (stereo partly drawn) [8H, Fucα1-2Galβ1-4(Fucα1-3)GlcNAcβ1-3Galβ1-4Glc]	1140 ± 30
CC(=O)NC1C(OC2C(O)C(COC3OC(CO)C(OC4OC(CO)C(O)C(OC5OC(CO)C(OC6OC(CO)C(O)C(O)C6O)C(O)C5NC(C)=O)C4O)C(OC4OC(C)C(O)C(O)C4O)C3NC(C)=O)OC(OC3C(CO)OC(O)C(O)C3O)C2O)OC(CO)C(OC2OC(CO)C(O)C(O)C2O)C1O (stereo not drawn) [8N, Galβ1-3GlcNAcβ1-3Galβ1-4(Fucα1-3)GlcNAcβ1-6(Galβ1-3 GlcNAcβ1-3)Galβ1-4Glc]	240 ± 20
